The values that follow come from US9975861B2, “Dual inhibitor compounds for use in the treatment of neurodegenerative disorders and alzheimer's disease” (FONDAZIONE ISTITUTO ITALIANO DI TECNOLOGIA, priority 2014, dated 2018).

For test [1], the system named is neurosphere cultures of primary rat neural stem cells. The test can be described thus: Neurosphere cultures, immunocytochemistry for neural markers. It counts as cell-based. The note with it: 10 μM during a week; compared to control (FIG. 3). An excerpt:
Neurosphere (NS) cultures were derived from the hippocampus of adult rats and induced to proliferate using established passaging methods to achieve optimal cellular expansion according to published protocols [Ferron, S. R.; Andreu-Agullo, C.; Mira, H.; Sanchez, P.; Marques-Torrejon, M. A.; Farinas, I. A combined ex/in vivo assay to detect effects of exogenously added factors in neural stem cells. Nature Protoc. 2007, 2, 849-859]. Rats were decapitated, brains removed, and the hippocampus dissected as described [Morales-Garcia, J. A.; Luna-Medina, R.; Alfaro-Cervello, C.; Cortes-Canteli, M.; Santos, A.; Garcia-Verdugo, J. M.; Perez-Castillo, A. Peroxisome proliferator-activated receptor gamma ligands regulate neural stem cell proliferation and differentiation in vitro and in vivo. Glia 2011, 59, 293-307]. Briefly, cells were seeded into 12-well dishes and cultured in DMEM/F12 (1:1, Invitrogen) containing 10 ng/mL epidermal growth factor (EGF, Peprotech, London, UK), 10 ng/mL fibroblast growth factor (FGF, Peprotech), and B27 medium (Gibco). After 3 days in culture, NS were cultivated in the presence or absence of the indicated compounds (10 μM) during a week. After that, NS from 10-day old cultures were plated for 72 hours onto 100 μg/mL poly-L-lysine-coated coverslips in the absence of exogenous growth factors.
Neurogenesis is a crucial property for new AD-modifying drugs, since it confers the potential to increase endogenous regeneration as a repair mechanism in the damaged brain, and reduce neuronal loss and degeneration. Considering that GSK-3β inhibition is reported to regulate and increase neurogenesis [Lange, C.; Mix, E.; Frahm, J.; Glass, A.; Muller, J.; Schmitt, O.; Schmole, A. C.; Klemm, K.; Ortinau, S.; Hubner, R.; Frech, M. J.; Wree, A.; Rolfs, A. Small molecule GSK-3 inhibitors increase neurogenesis of human neural progenitor cells. Neurosci. […]

For another test, the target named is Human recombinant GSK-3β (Homo sapiens (Human), UniProt P49841). The test can be described thus: Inhibition of GSK-3β (Kinase-Glo luminescent kinase assay). Type of test: biochemical. The note with it: 1 μM ATP, 25 μM substrate, 30 minutes at 30° C. As for the experimental part:
Human recombinant GSK-3β was purchased from Millipore (Millipore Iberica S.A.U.) The prephosphorylated polypeptide substrate was purchased from Millipore (Millipore Iberica SAU). Kinase-Glo Luminescent Kinase Assay was obtained from Promega (Promega Biotech Iberica, SL). ATP and all other reagents were from Sigma-Aldrich. Assay buffer contained 50 mM 4-(2-hydroxyethyl)-1-piperazineethanesulfonic acid (HEPES) (pH 7.5), 1 mM ethylenediaminetetraacetic acid (EDTA), 1 mM ethylene glycol tetraacetic acid (EGTA), and 15 mM magnesium acetate. The method developed by Baki was followed [Baki et al. Assay and Drug Development Technologies 2007, 5(1),75-83] to analyze the inhibition of GSK-3β. Kinase-Glo assays were performed in assay buffer using white 96-well plates. In a typical assay, 10 μL (10 μM) of test compound (dissolved in DMSO at 1 mM concentration and diluted in advance in assay buffer to the desired concentration) and 10 μL (20 ng) of enzyme were added to each well followed by 20 μL of assay buffer containing 25 μM substrate and 1 μM adenosine triphosphate (ATP). […] After a 30 minutes incubation at 30° C., the enzymatic reaction was stopped with 40 μL of Kinase-Glo reagent. Glow-type luminescence was recorded after 10 minutes using a Fluoroskan Ascent multimode reader.
The activity is proportional to the difference of the total and consumed ATP.

Another test concerns the target β-secretase (BACE-1) (Homo sapiens (Human), UniProt P56817). The experiment in a line: Inhibition of BACE-1 (fluorogenic APP-mimicking peptide substrate). The settings on record: BACE-1 IC50 (μM), substrate 3 μM, 1 hour pre-incubation at rt, 15 minutes at 37° C.
For test [2], the system named is primary astrocytes and microglial cells. The test can be described thus: Nitrites measurement (Griess reaction) in LPS-stimulated primary glial cells. The note with it: compounds 10 μM for 1 hour, then LPS 10 μg/mL for 24 hours; astrocytes and microglia; potency compared with 6-amino triazinones A-C (FIGS. 2A, 2B). It counts as cell-based, rat. The procedure:
Astrocytes were prepared from neonatal (P2) rat cerebral cortex, as previously described by Luna-Medina et al. [Luna-Medina, R.; Cortes-Canteli, M.; Alonso, M.; Santos, A.; Martinez, A.; Perez-Castillo, A. Regulation of inflammatory response in neural cells in vitro by thiadiazolidinones derivatives through peroxisome proliferator-activated receptor gamma activation. J. Biol. Chem. 2005, 280, 21453-21462].
Briefly, after removal of the meninges, the cerebral cortex was dissected, dissociated, and incubated with 0.25% trypsin/EDTA at 37° C. for 1 hour. After centrifugation, the pellet was washed 3 times with Hank's balanced salt solution (HBSS) (Gibco) and the cells were placed on noncoated flasks and maintained in HAMS/Dulbecco's modified eagle's medium (DMEM) (1:1) medium containing 10% of fetal bovine serum (FBS). After 15 days, the flasks were agitated on an orbital shaker for 4 hours at 240 rpm at 37° C., the supernatant was collected, centrifuged, and the cellular pellet containing the microglial cells resuspended in complete medium (HAMS/DMEM (1:1) containing 10% FBS) and seeded on uncoated 96-well plates. Cells were allowed to adhere for 2 hours, and the medium was removed to eliminate nonadherent oligodendrocytes. New fresh medium containing 10 ng/mL of granulocyte-macrophage colony-stimulating factor (GM-CSF) was added. The remaining astroglial cells adhered on the flasks were then trypsinized, collected, centrifugated, and plated onto 96-well plates with complete medium. The purity of cultures obtained by this procedure was >98% as determined by immunofluorescence with the OX42 (microglial marker) and the glial fibrillary acidic protein (GFAP, astroglial marker) antibodies.
The potential anti-inflammatory activity of the selected compounds was tested by evaluating the production of nitrites from primary cultured glial cells. Primary cultures of astrocytes and microglia were incubated with the selected compounds (10 μM) for 1 hour, and then cells were cultured for another 24 hours with a potent inflammatory agent, such as lipopolysaccharide (LPS) (10 μg/mL). LPS is able to induce nitrite production and accumulation in the culture medium, which was assayed by the standard Griess reaction. Supernatants were collected from the media and mixed with an equal volume of Griess reagent (Sigma). Samples were then incubated at rt for 15 minutes and absorbance read using a plate reader at 492/540 nm.

Sequence of Human recombinant GSK-3β (P49841 whole entry): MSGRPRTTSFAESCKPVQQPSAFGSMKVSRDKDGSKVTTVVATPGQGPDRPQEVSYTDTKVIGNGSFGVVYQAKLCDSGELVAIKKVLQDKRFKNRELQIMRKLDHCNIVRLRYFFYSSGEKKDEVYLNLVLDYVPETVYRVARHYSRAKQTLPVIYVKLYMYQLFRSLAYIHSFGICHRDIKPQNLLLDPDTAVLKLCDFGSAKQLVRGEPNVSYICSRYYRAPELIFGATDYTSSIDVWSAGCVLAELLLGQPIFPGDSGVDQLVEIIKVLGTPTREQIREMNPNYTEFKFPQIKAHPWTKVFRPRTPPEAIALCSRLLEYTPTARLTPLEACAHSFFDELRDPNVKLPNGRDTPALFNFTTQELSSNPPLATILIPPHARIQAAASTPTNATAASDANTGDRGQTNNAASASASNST
Sequence of β-secretase (BACE-1) (P56817 46-501): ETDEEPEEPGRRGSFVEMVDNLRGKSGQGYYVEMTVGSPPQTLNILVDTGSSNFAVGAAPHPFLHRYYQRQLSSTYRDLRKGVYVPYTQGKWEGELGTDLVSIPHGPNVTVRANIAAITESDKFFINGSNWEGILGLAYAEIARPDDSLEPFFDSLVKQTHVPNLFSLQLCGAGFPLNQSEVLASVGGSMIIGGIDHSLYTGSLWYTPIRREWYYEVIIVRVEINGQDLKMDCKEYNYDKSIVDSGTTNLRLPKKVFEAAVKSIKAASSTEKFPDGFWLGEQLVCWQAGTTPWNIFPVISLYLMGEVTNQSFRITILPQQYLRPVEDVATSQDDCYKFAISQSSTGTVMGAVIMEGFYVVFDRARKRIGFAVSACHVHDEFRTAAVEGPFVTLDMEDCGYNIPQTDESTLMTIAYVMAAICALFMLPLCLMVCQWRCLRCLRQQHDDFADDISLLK
Protocol for β-secretase (BACE-1): β-secretase (BACE-1, Sigma-Aldrich) inhibition studies were performed by employing a peptide mimicking APP sequence as substrate (Methoxycoumarin-[sequence]dinitrophenyl, M-2420, Bachem, Germany). The following procedure was employed: 5 μL of test compounds (or DMSO, if preparing a control well) were pre-incubated with 175 μL of enzyme (in 20 mM sodium acetate containing 3-[(3-Cholamidopropyl)dimethylammonio]-1-propanesulfonate (CHAPS) 0.1% w/v) for 1 hour at rt. The substrate (3 μM, final concentration) was then added and left to react for 15 minutes at 37° C. The fluorescence signal was read at λem=405 nm (λexc=320 nm) using a Fluoroskan Ascent. […] The fluorescence intensities with and without inhibitor were compared and the percent inhibition due to the presence of test compounds was calculated. The background signal was measured in control wells containing all the reagents, except BACE-1 and subtracted. The % inhibition due to the presence of increasing test compound concentration was calculated by the following expression: 100−(IFi/IFo×100) where IFi and IFo are the fluorescence intensities obtained for BACE-1 in the presence and in the absence of inhibitor, respectively. […] The linear regression parameters were determined and the IC50 extrapolated (GraphPad Prism 4.0, GraphPad Software Inc.).

As to `NC1=NC(c2ccc(F)cc2)NC(=O)N1` (centres unmarked) [Compound A, reference compound], the “number of MAP-2 positive cells (mature neuronal marker)” value in test [1] was “only a marginal increase”.
For `CCNC1=NC(c2ccccc2C)NC(=O)N1` (centres unmarked) [Example 2, 6-(ethylamino)-4-(o-tolyl)-3,4-dihydro-1,3,5-triazin-2(1H)-one], the IC50 at Human recombinant GSK-3β was 40.7 ± 2.7 µM; on β-secretase (BACE-1), 50.3 ± 6.61 µM.
On to `O=C1NC(Nc2ccccc2)=NC(c2ccc(F)cc2)N1` (centres unmarked) [Example 9, 4-(4-fluorophenyl)-6-(phenylamino)-3,4-dihydro-1,3,5-triazin-2(1H)-one], for which the “reduction of LPS-induced nitrite production” value in test [2] is “higher potency”. In addition, the IC50 on Human recombinant GSK-3β is 6.93 ± 0.14 µM.
